The record followed here is patent US5817669A, “Compounds, processes for the preparation thereof and anti-tumor agents” (Dainippon Pharmaceutical Co., Ltd., priority 1994, dated 1998).

Series [1] deals with AZ521 human stomach cancer. The series is described as follows: In vitro anti-tumor activity against AZ-521 human stomach cancer (MTT). Type of series: cell-based. As to conditions: AZ-521, 72 h, MTT, read-out: IC50. The gist of the method:
(§1)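 500–2,000 cells per well were pre-cultured 20 h at 37° C, 5% CO2, then exposed to test compound for 72 h. MTT (5 mg/ml) was added for 4 h, supernatant removed and formazan dissolved in DMSO.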

For series [2], the system named is WiDr human colorectal cancer. In words: In vitro anti-tumor activity against WiDr human colorectal cancer (MTT). Type of series: cell-based. As to conditions: 72 h, MTT, read-out: IC50. Summed up: as §1
For series [3], the system named is murine P388 lymphocytic leukemia cells. The series is described as follows: Increases in life span of mice implanted with murine P388 lymphocytic leukemia cells. In kind it is in vivo, SLC: BDF1 mice. As to conditions: Mus musculus, P388, ip, 720 h, ip.
A further series is described as follows: Acute toxicity. As to conditions: mouse, in vivo; Intraperitoneal administration (ip), mice, 14th day. The method, then: Solutions of test compounds in predetermined concentrations were administered (0.1 ml/10 g body weight) to female BALB/c CrSlc mice (5 to 10 animals per one group, 10 weeks old) respectively, and, thus, LD50 values were calculated from the mortalities of the mice on the 14th day after the administration.

The mark [4] stands for this setting: NCI criterion, read-out: Evaluation.
The mark [5] stands for this setting: days 1 and 5, in solution, read-out: ILS (%) (in solution).
The mark [6] stands for this setting: days 1 and 5, in suspension, read-out: ILS (%) (in suspension).

Like-named read-outs stand apart in the source and are kept apart here. A value given as a limit tells only on which side of the number the result lay.

As a reminder, the IC50 is the concentration that inhibits the measured activity by half. The term LD50 denotes the dose at which mortality reaches 50%. Turning to `CN[C@@H]1CN(c2ccc3c(=O)c(C(=O)O)cn(-c4nccs4)c3n2)C[C@H]1OC.Cl` (relative stereo) [Compound 1-1, 1,4-dihydro-7-(trans-3-methoxy-4-methylamino-1-pyrrolidinyl)-4-oxo-1-(2-thiazolyl)-1,8-naphthyridine-3-carboxylic acid hydrochloride], the IC50 in series [1] amounted to 0.0561 µg/mL. Moreover, the concentration for half-maximal inhibition (IC50) in series [2] was 0.379 µg/mL. In series [3] (setting [4]), the ILS at 0.78 mg/kg was in the range of 20 to 74%, the ILS at 1.56 mg/kg is 20 to 74%, the ILS at 3.13 mg/kg is > 75% and the ILS at 6.25 mg/kg is > 75%. Further, in series [3] (setting [4]), the ILS at 12.5 mg/kg is > 75%, the ILS at 25 mg/kg was > 75% and the ILS at 50 mg/kg is > 75%. Moreover, in series [3] (setting [5]), the ILS at 0.78 mg/kg worked out at 50%, the ILS at 1.56 mg/kg turned out to be 63%, the ILS at 3.13 mg/kg was determined as 100% and the ILS at 6.25 mg/kg amounted to 125%. Also, in series [3] (setting [5]), the ILS at 12.5 mg/kg amounted to 150%, the ILS at 25 mg/kg stood at 200% and the ILS at 50 mg/kg is > 275%. In series [3] (setting [6]), the ILS at 3.13 mg/kg worked out at 88% and the ILS at 12.5 mg/kg was 175%. Besides, in the series “Acute toxicity”, the LD50 at 336 h was determined as 93.2 mg/kg.
